Measurements from patent US7829665B2 (priority 2005, dated 2010).

The compounds below were run against T1, full-length NS3/NS4A-2 (HCV NS3 protease) (Hepatitis C virus genotype 1a, UniProt P27958) (assay: NS3-NS4 protease assay / NS3 inhibition assay (RETS1 substrate, fluorescence kinetic read)). Details: Table 22; read-out: NS3-NS4 IC50.
T1 construct: Recombinant E. coli or Baculovirus full-length NS3 was diluted to 3.33 μM with assay buffer; made in house; host or cells: E. coli or baculovirus (BV) expression system
T1 sequence (P27958 1027-1657): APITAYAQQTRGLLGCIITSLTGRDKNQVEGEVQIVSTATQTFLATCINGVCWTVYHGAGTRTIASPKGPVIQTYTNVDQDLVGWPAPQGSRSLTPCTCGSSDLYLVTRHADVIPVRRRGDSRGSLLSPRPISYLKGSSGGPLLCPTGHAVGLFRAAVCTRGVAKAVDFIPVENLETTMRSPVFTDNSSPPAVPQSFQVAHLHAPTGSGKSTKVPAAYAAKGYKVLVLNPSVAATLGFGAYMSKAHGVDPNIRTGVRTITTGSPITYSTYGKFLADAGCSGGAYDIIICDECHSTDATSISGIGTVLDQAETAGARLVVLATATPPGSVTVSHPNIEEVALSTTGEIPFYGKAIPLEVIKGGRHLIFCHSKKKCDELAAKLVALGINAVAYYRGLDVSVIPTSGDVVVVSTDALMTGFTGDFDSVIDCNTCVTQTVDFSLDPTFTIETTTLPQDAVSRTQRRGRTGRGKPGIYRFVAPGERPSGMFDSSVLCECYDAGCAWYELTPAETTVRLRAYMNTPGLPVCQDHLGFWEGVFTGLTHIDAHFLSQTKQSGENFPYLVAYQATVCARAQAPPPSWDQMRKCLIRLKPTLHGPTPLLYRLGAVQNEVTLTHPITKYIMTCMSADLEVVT
Type: biochemical
Protocol: NS3 complex formation with NS4A-2.
Recombinant E. coli or Baculovirus full-length NS3 was diluted to 3.33 μM with assay buffer and transferred material to an eppendorf tube and place in water bath in 4° C. refrigerator. The appropriate amount of NS4A-2 to 8.3 mM in assay buffer was added to equal the volume of NS3 in step 2.1.1 (conversion factor—3.8 mg/272 μL assay buffer). The material was transferred to an eppendorf tube and place in water bath in 4° C. refrigerator.
After equilibration to 4° C., equal volumes of NS3 and NS4A-2 solutions were combined in an eppendorf tube, mix gently with a manual pipettor, and incubate mixture for 15 minutes in the 4° C. water bath. Final concentrations in the mixture are 1.67 μM NS3, 4.15 mM NS4A-2 (2485-fold molar excess NS4A-2).
After 15 minutes at 4° C., the NS3/NS4A-2 eppendorf tube was removed and place it in a room temperature water bath for 10 minutes. NS3/NS4A-2 was alliquoted at appropriate volumes and store at −80° C. (E. coli NS3 run at 2 nM in assay, aliquot at 25 μL. BV NS3 run at 3 nM in assay, aliquot at 30 μL).
Sample compounds were dissolved to 10 mM in DMSO then diluted to 2.5 mM (1:4) in DMSO. Typically, compounds were added to an assay plate at 2.5 mM concentration, yielding upon dilution a starting concentration of 50 microM in the assay inhibition curve. Compounds were serial diluted in assay buffer to provide test solutions at lower concentrations.
The E. coli. NS3/NS4A-2 was diluted to 4 nM NS3 (1:417.5 of 1.67 μM stock−18 μL 1.67 μM stock+7497 μL assay buffer). The BV NS3/NS4A-2 was diluted to 6 nM NS3 (1:278.3 of 1.67 μM stock−24 μL 1.67 μM stock+6655 μL assay buffer). Using the manual multichannel pipettor, careful not to introduce bubbles into the plate, add 50 μL assay buffer to wells A01-H01 of a black Costar 96-well polypropylene storage plate.
Using the manual multichannel pipettor, careful not to introduce bubbles into the plate, add 50 μL of diluted NS3/NS4A-2 from step 2.2.6 to wells A02-H12 of plate in step 2.2.7. Using the manual multichannel pipettor, careful not to introduce bubbles into the plate, transfer 25 μL of the wells in drug dilution plate in step 2.2.5 to corresponding wells in assay plate in step 2.2.8. Change tips on multichannel pipettor for each row of compounds transferred. Using the manual multichannel pipettor, careful not to introduce bubbles into the plate, mix the wells from the assay plate in step 2.2.9 by aspirating and dispensing 35 μL of the 75 μL in each well five times. Change tips on multichannel pipettor for each row of wells mixed. Cover plate with a polystyrene plate lid and pre-incubate the plate from step 2.2.10 containing NS3 protease and sample compounds 10 minutes at room temperature. While plate from step 2.2.11 is pre-incubating, dilute RETS1 substrate in a 15 mL polypropylene centrifuge tube. Dilute RETS1 substrate to 8 μM (1:80.75 of 646 μM stock−65 μL 646 μM stock+5184 μL assay buffer).
After the plate in step is done pre-incubating, and using the manual multichannel, add 25 μL of substrate to all wells on the plate. Quickly mix the plate as in step 2.2.10, mixing 65 μL of the 100 μL in the wells.
Read the plate in kinetic mode on the Molecular Devices SpectraMax Gemini XS plate reader. Reader settings: Read time: 30 minutes, Interval: 36 seconds, Reads: 51, Excitation λ: 335 nm, Emission λ: 495 nm, cutoff: 475 nm, Automix: off, Calibrate: once, PMT: high, Reads/well: 6, Vmax pts: 21 or 28/51 depending on length of linearity of reaction
IC50 s are determined using a four parameter curve fit equation, and converted to Ki's using the following Km's: • Full-length E. coli NS3—2.03 μM • Full-length BV NS3—1.74 μM where Ki=IC50/(1+[S]/Km)) • Quantitation by ELISA of the selectable marker protein, Neomycin phosphotransferase II (NPTII) in the HCV Sub-Genomic Replicon, GS4.3
`CC(C)(C)OC(=O)N[C@H]1CCCCC/C=C\[C@@H]2C[C@@]2(C(=O)Nc2cccc(Cl)c2)NC(=O)[C@@H]2CCCN2C1=O` [Compound 2317] gave an IC50 of less than 1 µM.

Same assay, conditions: recombinant E. coli or Baculovirus full-length NS3 with NS4A-2; read-out: NS3-NS4 IC50
For `CCOC(=O)[C@@]12C[C@H]1/C=C\CCCCC[C@H](N)C(=O)N1C[C@H](OC(=O)N3Cc4ccc(OCCN5CCOCC5)cc4C3)C[C@H]1C(=O)N2` [Compound 126], the IC50 was greater than 10 µM. `CN1CCN(S(=O)(=O)NC(=O)[C@@]23C[C@H]2/C=C\CCCCC[C@H](NC(=O)OC(C)(C)C)C(=O)N2CCC[C@H]2C(=O)N3)CC1` [Compound 2208] gave an IC50 of less than 1 µM. `CCOc1ccc2sc(S(=O)(=O)NC(=O)[C@@]34C[C@H]3/C=C\CCCCC[C@H](NC(=O)OC(C)(C)C)C(=O)N3CCC[C@H]3C(=O)N4)nc2c1` [Compound 306] showed an IC50 greater than 10 µM. Work on `CC(C)COC(=O)N[C@H]1CCCCC/C=C\[C@@H]2C[C@@]2(C(=O)NS(=O)(=O)Nc2ccc(Cl)cc2)NC(=O)[C@@H]2CCCN2C1=O` [Compound 419] yielded an IC50 of less than 10 µM. With `Cc1ccc([S@@+]([O-])NC(=O)[C@@]23C[C@H]2/C=C\CCCCC[C@H](NC(=O)OC(C)(C)C)C(=O)N2CCC[C@H]2C(=O)N3)cc1` [Compound 2403] the IC50 was less than 1 µM. `Cc1ccc(NS(=O)(=O)NC(=O)[C@@]23C[C@H]2/C=C\CCCCC[C@H](NC(=O)OC(C)(C)C)C(=O)N2CCC[C@H]2C(=O)N3)cc1` [Compound 2243] showed an IC50 of less than 1 µM. `CC(C)(C)OC(=O)N[C@H]1CCN(S(=O)(=O)c2ccccc2[N+](=O)[O-])CC/C=C\[C@@H]2C[C@@]2(C(=O)NS(=O)(=O)C2CC2)NC(=O)[C@@H]2C[C@@H](OC(=O)N3Cc4cccc(F)c4C3)CN2C1=O` [Compound 1030, (2R,6S,13aS,14aR,16aS,Z)-6-(tert-butoxycarbonylamino)-14a-(cyclopropylsulfonylcarbamoyl)-9-(2-nitrophenylsulfonyl)-5,16-dioxo-1,2,3,5,6,7,8,9,10,11,13a,14,14a,15,16,16a-hexadecahydrocyclopropa(n)pyrrolo[2,1-c][1,4,9]triazacyclopentadecine-2-yl 4-fluoroisoindoline-2-carboxylate] showed an IC50 of less than 0.1 µM. In the case of `CC(C)N(C)S(=O)(=O)NC(=O)[C@@]12C[C@H]1/C=C\CCCCC[C@H](NC(=O)OC(C)(C)C)C(=O)N1CCC[C@H]1C(=O)N2` [Compound 401], the IC50 is reported as less than 10 µM. For `CC(C)(C)OC(=O)N[C@H]1CCCCC/C=C\[C@@H]2C[C@@]2(C(=O)NS(=O)(=O)Nc2ccc(C(F)(F)F)cc2)NC(=O)[C@@H]2CCCN2C1=O` [Compound 2235], the IC50 was less than 1 µM. `CC(C)(C)OC(=O)N[C@H]1CCCCC/C=C\[C@@H]2C[C@@]2(C(=O)NCCN2CCOCC2)NC(=O)[C@@H]2C[C@@H](OC(=O)N3Cc4cccc(F)c4C3)CN2C1=O` [Compound 607] was tested, and the IC50 was greater than 10 µM. `CN(c1cccc(Cl)c1)S(=O)(=O)NC(=O)[C@@]12C[C@H]1/C=C\CCCCC[C@H](NC(=O)OC(C)(C)C)C(=O)N1CCC[C@H]1C(=O)N2` [Compound 404] gave an IC50 of less than 10 µM. `CN(C)S(=O)(=O)NC(=O)[C@@]12C[C@H]1/C=C\CCCCC[C@H](NC(=O)OC(C)(C)C)C(=O)N1CCC[C@H]1C(=O)N2` [Compound 2202] showed an IC50 of less than 10 µM. Work on `CC(C)(C)OC(=O)N[C@H]1CCCCC/C=C\[C@@H]2C[C@@]2(C(=O)N[S@@+]([O-])C(C)(C)C)NC(=O)[C@@H]2CCCN2C1=O` [Compound 2401, (1S,4R,6S,14S)tert-Butyl 4-((S)-2-methylpropane-2-sulfinyl)-aminocarbonyl-2,15-dioxo-3,16-diaza-tricyclo[14.3.0.0^4,6]nonadec-7-ene-14-yl carbamate] yielded an IC50 of less than 0.1 µM. In the case of `CCOC(=O)[C@@]12C[C@H]1/C=C\CCCCC[C@H](Nc1c(N3CCC3)c(=O)c1=O)C(=O)N1C[C@H](OC(=O)N3Cc4cccc(F)c4C3)C[C@H]1C(=O)N2` [Compound 645], the IC50 is reported as less than 0.1 µM. `CC(C)(C)OC(=O)N[C@H]1CCCCC/C=C\[C@@H]2C[C@@]2(C(=O)NC(=O)Nc2ccccc2)NC(=O)[C@@H]2C[C@@H](OC(=O)N3Cc4ccccc4C3)CN2C1=O` [Compound 704] was tested, and the IC50 was less than 10 µM. `CN(C)c1ccc(S(=O)(=O)NC(=O)[C@@]23C[C@H]2/C=C\CCCCC[C@H](NC(=O)OC2CCCC2)C(=O)N2C[C@H](OC(=O)N4CCc5ccccc5C4)C[C@H]2C(=O)N3)cc1` [Compound 183] showed an IC50 of less than 0.1 µM. `CC(C)(C)OC(=O)N[C@H]1CCCCC/C=C\[C@@H]2C[C@@]2(C(=O)NS(=O)(=O)c2cc3ccccc3s2)NC(=O)[C@@H]2CCCN2C1=O` [Compound 307] showed an IC50 of less than 10 µM. Work on `CC(C)(C)CC(=O)N[C@H]1CCCCC/C=C\[C@@H]2C[C@@]2(C(=O)NS(=O)(=O)C2CC2)NC(=O)C2CCCN2C1=O` (stereo partly drawn) [Compound 2141] yielded an IC50 of less than 10 µM. `CC[C@@H]1C[C@H]2C(=O)N[C@]3(C(=O)O)C[C@H]3/C=C\CCCCC[C@H](NC(=O)OC3CCCC3)C(=O)N2C1` [Compound 313] was tested, and the IC50 was less than 10 µM. For `CC(C)(C)OC(=O)N[C@H]1CCCCC/C=C\[C@@H]2C[C@@]2(C(=O)NS(=O)(=O)Nc2ccc(C#N)cc2)NC(=O)[C@@H]2CCCN2C1=O` [Compound 2241], the IC50 was less than 1 µM. In the case of `CC(C)(C)OC(=O)N[C@H]1CCCCC/C=C\[C@@H]2C[C@@]2(C(=O)NS(=O)(=O)C(C)(C)C)NC(=O)[C@@H]2CCCN2C1=O` [Compound 303], the IC50 is reported as greater than 10 µM. In the case of `CC(C)(C)OC(=O)N[C@H]1CCCCC/C=C\[C@@H]2C[C@@]2(C(=O)NS(=O)(=O)c2cccs2)NC(=O)[C@@H]2CCCN2C1=O` [Compound 2136], the IC50 is reported as less than 10 µM. With `CC(C)(C)OC(=O)N[C@H]1CCCCCCC[C@@H]2C[C@@]2(C(=O)O)NC(=O)C2Cc3ccccc3CN2C1=O` (stereo partly drawn) [Compound 2011, (1aR,9S,19aR)-9-(tert-butoxycarbonyl)-10,18-dioxo-1a,2,3,4,5,6,7,8,9,10,12,17,17a,18,19,19a-hexadecahydro-1H-2,5-diaza-bicyclo[13.1.0]hexadec-1(15)-eno[5,4-b]isoquinoline-19a-carboxylic acid] the IC50 was greater than 10 µM. In the case of `COc1cccc(S(=O)(=O)NC(=O)[C@@]23C[C@H]2/C=C\CCCCC[C@H](NC(=O)OC(C)(C)C)C(=O)N2CCC[C@H]2C(=O)N3)c1` [Compound 2116], the IC50 is reported as less than 10 µM. Work on `CC(C)(C)OC(=O)N[C@H]1CCCCC/C=C\[C@@H]2C[C@@]2(CO)NC(=O)[C@@H]2C[C@@H](OC(=O)N3Cc4cccc(F)c4C3)CN2C1=O` [Compound 153, (2R,6S,13aS,14aR,16aS,Z)-6-(tert-botoxycarbonylamino)-14a-(hydroxymethyl)-5,16-dioxo-1,2,3,5,6,7,8,9,10,11,13a,14,14a,15,16,16a-hexadecahydrocyclopropa[e]pyrrolo[1,2-α][1,4]dizacyclopentadecin-2-yl-4-fluoroisoindoline-2-carboxylate] yielded an IC50 greater than 10 µM. `CCCC1(S(=O)(=O)NC(=O)[C@@]23C[C@H]2/C=C\CCCCC[C@H](NC(=O)OC(C)(C)C)C(=O)N2CCC[C@H]2C(=O)N3)CC1` [Compound 304] was tested, and the IC50 was less than 10 µM. Work on `CC(C)(C)OC(=O)N[C@H]1CCCCC/C=C\[C@@H]2C[C@@]2(C(=O)NS(N)(=O)=O)NC(=O)[C@@H]2CCCN2C1=O` [Compound 2203] yielded an IC50 of less than 1 µM. In the case of `CNS(=O)(=O)NC(=O)[C@@]12C[C@H]1/C=C\CCCCC[C@H](NC(=O)OC(C)(C)C)C(=O)N1CCC[C@H]1C(=O)N2` [Compound 2213], the IC50 is reported as less than 10 µM. For `CC(C)(C)OC(=O)N[C@H]1CCCCC/C=C\[C@@H]2C[C@@]2(C(=O)NS(=O)(=O)/C=C/c2ccccc2)NC(=O)[C@@H]2CCCN2C1=O` [Compound 2125], the IC50 was less than 1 µM.
